Measured values as given in paper PMC11035696, “Prospective de novo drug design with deep interactome learning” (Nature Communications, 2024).
Entries after “also recorded” stand apart in the source; their conditions may differ.

How the values were obtained:
[1] = molecular target: CYP1A2 (Homo sapiens, UniProt P05177); assay: CYP inhibition dose-response; format: in vitro ADME; details: substrate PHENACETIN
Protocol: (§1) SI11Absorption Distribution Metabolism and Excretion and Toxicity Data
(§2) To assess the drug-like characteristics of the newly designed PPAR modulators, a series of tests were conducted covering various aspects of absorption, distribution, metabolism, and excretion (ADME) properties. Specifically, these assessments included the parallel artificial membrane permeability assay (PAMPA) with permeation co- […]
(§3) efficients ([…]), LogD measurements, microsomal clearance, hepatocyte clearance, P-glycoprotein (Pgp) efflux ratio and binding and the unbound free fraction. Furthermore, the evaluation of inhibition po-tential against cytochrome P450 isoenzymes (CYP) proteins was investigated. For seven selected CYP proteins (i.e., Cyp3A4, Cyp1A2, Cyp2B6, Cyp2C9, Cyp2D6, Cyp2C19, and Cyp2C8) the half maximal inhibitory con-centration (IC50) was determined. (Table S15). […]
(§4) activity in the CYP assays was found.
(§5) Table S14: Absorption distribution metabolism and excretion (ADME) properties of compounds 1 and 2. […]
(§6) The values for microsomal clearance and CYP-inhibition represent single point measurements. […]
(§7) Molecule Enzyme Substrate IC50 (µM) […]

[2] = molecular target: CYP2B6 (Homo sapiens, UniProt P20813); assay: CYP inhibition dose-response; format: in vitro ADME; details: substrate BUPROPION
CYP2B6, sequence (P20813 whole entry): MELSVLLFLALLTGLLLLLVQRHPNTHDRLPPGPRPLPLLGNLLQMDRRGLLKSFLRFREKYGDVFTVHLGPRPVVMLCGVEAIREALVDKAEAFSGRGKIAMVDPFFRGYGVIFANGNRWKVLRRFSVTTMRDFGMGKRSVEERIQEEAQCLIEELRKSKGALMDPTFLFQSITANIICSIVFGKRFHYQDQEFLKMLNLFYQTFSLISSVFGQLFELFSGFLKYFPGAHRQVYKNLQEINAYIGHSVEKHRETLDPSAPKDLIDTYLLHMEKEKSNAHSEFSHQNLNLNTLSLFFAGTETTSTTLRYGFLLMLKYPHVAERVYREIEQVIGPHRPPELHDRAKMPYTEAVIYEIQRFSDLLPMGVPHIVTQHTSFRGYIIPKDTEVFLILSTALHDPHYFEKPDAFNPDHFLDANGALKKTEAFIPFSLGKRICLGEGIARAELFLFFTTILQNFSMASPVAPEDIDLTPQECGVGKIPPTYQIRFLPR
Protocol: as §1, §2, §3, §4, §5, §6, §7

[3] = molecular target: CYP2C19 (Homo sapiens, UniProt P33261); assay: CYP inhibition dose-response; format: in vitro ADME; details: substrate S-MEPHENYTOIN
CYP2C19, sequence (P33261 whole entry): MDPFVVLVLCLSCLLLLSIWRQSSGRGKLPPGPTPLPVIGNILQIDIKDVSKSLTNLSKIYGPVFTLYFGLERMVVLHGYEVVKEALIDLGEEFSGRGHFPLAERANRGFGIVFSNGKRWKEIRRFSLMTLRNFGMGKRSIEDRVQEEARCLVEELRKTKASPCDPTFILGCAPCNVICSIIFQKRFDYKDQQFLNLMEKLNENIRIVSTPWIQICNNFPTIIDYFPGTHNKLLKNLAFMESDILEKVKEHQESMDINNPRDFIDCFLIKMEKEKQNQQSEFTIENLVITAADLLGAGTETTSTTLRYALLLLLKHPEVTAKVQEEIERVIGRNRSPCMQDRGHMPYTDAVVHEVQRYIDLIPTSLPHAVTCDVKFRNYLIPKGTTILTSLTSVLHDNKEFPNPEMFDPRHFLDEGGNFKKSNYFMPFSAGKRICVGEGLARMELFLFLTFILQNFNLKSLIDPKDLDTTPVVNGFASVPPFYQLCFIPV
Protocol: as §1, §2, §3, §4, §5, §6, §7

[4] = test system: HEK293T cells; assay: Cytotoxicity assay on HEK293T cells (Celltiter-glo); format: cell-based, human; details: 16 h and 24 h, 0.05–20 μM, range of cell numbers, result in words
Protocol: HEK293T cells were seeded at the indicated number per well in DMEM-high glucose, complemented with glutamax, pen-strep, and 10% FBS, in a total of 40 μl of medium. The cells were incubated overnight at 37 °C. Compounds were added to the cells at the indicated concentrations, resulting in a final Dimethylsulfoxid (DMSO) concentration of 0.2%. The compounds were incubated on the cells for either 16 h or 24 h. At the specified time point, the medium was carefully removed from the vessel, leaving only 2 μl in the wells. Celltiter-glo (CTG) reagent (G7572, Promega) was prepared according to the manufacturer’s instructions. Plates with cells were equilibrated at room temperature for 30 min. Subsequently, 25 μl of CTG reagent was added to the cells. The plates were then shaken for 2 min and incubated for an additional 15 min at room temperature. Luminescence was read afterward with BG Pherastar.

[5] = molecular target: XANTHINE OXIDASE (Bos taurus, UniProt P80457); assay: Safety off-target panel, enzymatic; format: biochemical, Bovine; details: single point
XANTHINE OXIDASE, sequence (P80457 whole entry): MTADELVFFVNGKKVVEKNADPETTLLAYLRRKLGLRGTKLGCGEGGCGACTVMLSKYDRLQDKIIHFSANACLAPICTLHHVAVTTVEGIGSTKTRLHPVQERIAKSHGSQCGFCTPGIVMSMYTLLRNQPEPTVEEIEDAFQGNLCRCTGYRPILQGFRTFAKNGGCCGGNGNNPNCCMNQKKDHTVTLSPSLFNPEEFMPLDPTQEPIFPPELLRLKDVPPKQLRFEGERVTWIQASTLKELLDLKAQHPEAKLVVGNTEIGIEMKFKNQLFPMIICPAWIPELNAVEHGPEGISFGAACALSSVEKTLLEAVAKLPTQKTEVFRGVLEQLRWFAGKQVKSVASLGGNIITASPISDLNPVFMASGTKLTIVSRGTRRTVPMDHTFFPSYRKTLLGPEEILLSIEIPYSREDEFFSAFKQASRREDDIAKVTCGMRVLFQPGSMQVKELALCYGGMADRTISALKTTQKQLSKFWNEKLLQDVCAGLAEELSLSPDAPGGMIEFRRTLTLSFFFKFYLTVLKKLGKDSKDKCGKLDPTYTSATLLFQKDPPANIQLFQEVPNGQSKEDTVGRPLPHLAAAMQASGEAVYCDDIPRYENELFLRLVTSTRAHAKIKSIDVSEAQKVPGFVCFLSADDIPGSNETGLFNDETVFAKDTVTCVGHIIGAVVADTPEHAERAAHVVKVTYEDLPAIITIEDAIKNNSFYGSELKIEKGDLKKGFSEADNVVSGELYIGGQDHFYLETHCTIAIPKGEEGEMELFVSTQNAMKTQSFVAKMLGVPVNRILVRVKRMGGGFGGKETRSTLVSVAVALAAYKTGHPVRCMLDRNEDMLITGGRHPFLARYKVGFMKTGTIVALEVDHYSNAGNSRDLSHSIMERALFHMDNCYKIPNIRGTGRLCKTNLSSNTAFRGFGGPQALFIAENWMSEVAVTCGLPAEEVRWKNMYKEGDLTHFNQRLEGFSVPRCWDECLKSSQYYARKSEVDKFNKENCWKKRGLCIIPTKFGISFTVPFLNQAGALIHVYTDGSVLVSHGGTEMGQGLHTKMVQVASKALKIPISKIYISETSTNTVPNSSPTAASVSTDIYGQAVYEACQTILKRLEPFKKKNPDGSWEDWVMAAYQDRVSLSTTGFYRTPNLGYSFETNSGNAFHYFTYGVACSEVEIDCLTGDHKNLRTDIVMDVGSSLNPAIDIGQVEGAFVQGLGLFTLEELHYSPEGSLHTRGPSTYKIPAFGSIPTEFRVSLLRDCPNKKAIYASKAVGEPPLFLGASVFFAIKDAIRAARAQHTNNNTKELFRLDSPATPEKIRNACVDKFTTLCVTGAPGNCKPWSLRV
Source text: (§8) Table S9-S12 list all targets, their species, inhibition (%) and assay type for the experiments conducted in the
(§9) off-targets. […] The numbers for mean
(§10) inhibition (%) represent single point measurements.
(§11) off-targets. […] The numbers for
(§12) mean inhibition (%) represent single point measurements.

[6] = test system: CA2+ CHANNEL (DILTIAZEM SITE); assay: Safety off-target panel, binding; set-up: species or system Rat; details: 10 µM, single point
Source text: as §8, §9, §10, §11, §12

[7] = test system: GABA-A (BENZODIAZAPINE BINDING SITE); assay: Safety off-target panel, binding; set-up: species or system Rat; details: 10 µM, single point
Source text: as §8, §9, §10, §11, §12

[8] = test system: PCP RECEPTOR; assay: Safety off-target panel, binding; set-up: species or system Rat; details: 10 µM, single point
Source text: as §8, §9, §10, §11, §12

CYP1A2, sequence (P05177 whole entry): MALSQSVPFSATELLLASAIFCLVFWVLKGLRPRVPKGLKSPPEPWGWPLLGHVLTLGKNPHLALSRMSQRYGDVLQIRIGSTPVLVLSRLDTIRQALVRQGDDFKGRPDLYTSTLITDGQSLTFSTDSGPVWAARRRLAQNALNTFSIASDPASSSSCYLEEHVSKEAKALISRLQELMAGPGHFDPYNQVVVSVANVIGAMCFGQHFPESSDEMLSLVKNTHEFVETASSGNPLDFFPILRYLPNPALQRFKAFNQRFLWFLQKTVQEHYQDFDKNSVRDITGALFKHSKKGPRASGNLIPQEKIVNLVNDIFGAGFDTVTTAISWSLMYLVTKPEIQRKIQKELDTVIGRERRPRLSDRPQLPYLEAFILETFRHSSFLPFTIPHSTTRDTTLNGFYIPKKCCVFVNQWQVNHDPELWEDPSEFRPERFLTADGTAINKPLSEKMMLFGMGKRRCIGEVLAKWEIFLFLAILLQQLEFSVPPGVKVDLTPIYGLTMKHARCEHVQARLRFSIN

SMILES	IC50 [1]	IC50 [2]	IC50 [3]	cytotoxicity on HEK293T cells [4]	inhibition at 10 µM [5]	Mean inhibition (%) [6]	Mean inhibition (%) [7]	Mean inhibition (%) [8]
Cc1nnc(-c2ccc(OCCCOc3ccc(CCC(=O)O)c(F)c3)c(F)c2)s1 [Compound 1]	> 20 µM	> 20 µM	> 20 µM	did not indicate any cytotoxicity; also recorded: No cytotoxic effects	-3.1%	-4.7%	12.5%	-12.0%
COc1ccc(Oc2ccc3ncn(CCOc4ccc(CCC(=O)O)cc4)c3c2)cc1 [Compound 2]	> 20 µM	> 20 µM	> 20 µM	did not indicate any cytotoxicity; also recorded: No cytotoxic effects	0.4%	-11.7%	57.8%	11.8%
